The record followed here is patent US5608091A, “Quinizarin compound, method for production thereof, and use therefor” (Nippon Shokubai Co., Ltd., priority 1993, dated 1997).

One data set can be described thus: Color tone of the dye. The class given is physicochemical. The conditions noted are these: Tables 1-9.
Data set [1] can be described thus: Solubility in toluene and methyl ethyl ketone, three-point scale. The data set is classed as physicochemical. An excerpt: In these tables, the solubility is rated on the three-point scale, wherein Δ stands for a solubility of less than 1% by weight, .largecircle. for a solubility in the approximate range of 1 to 3% by weight, and .circleincircle. for a solubility of not less than 3% by weight.

The nature of data set [2]: Stability in storage of thermal transfer recorded images. The conditions noted are these: 50° C., 50 hours. As for the experimental part: The recorded images obtained as described above were left standing in an atmosphere kept at 50° C. for 50 hours and, after the standing, were examined to determine the presence or absence of change caused on the images owing to the standing.
Ink compositions were prepared, transfer sheets produced, and transfer recording carried out by following the procedure of Example 89 while using the dye shown in Table 11 instead. The recorded images were tested for lightfastness and then for stability in storage in the same manner as in Example 89.
Ink compositions were prepared, transfer sheets produced, and transfer recording carried out by following the procedure of Example 89 while using the dyes shown in Table 12 instead. The recorded images were tested for lightfastness and then for stability in storage in the same manner as in Example 89.

The nature of data set [3]: Visible absorption spectrum (λmax, ε). The class given is physicochemical. The settings on record: for ε: in M-1 cm-1 (unit assumed).

For `O=C1c2c(O)ccc(O)c2C(=O)c2c(F)c(Nc3c(Cl)cccc3Cl)c(F)c(F)c21` [(22)], the Color tone entry in the data set “Color tone of the dye” was “Magenta”. The “Solubility in methyl ethyl ketone” value in data set [1] is reported as “.largecircle. (a solubility in the approximate range of 1 to 3% by weight)”. The Solubility in toluene result in data set [1] (in toluene) is “.circleincircle. (a solubility of not less than 3% by weight)”. Also, the Stability in storage entry in data set [2] is on record as “Good”. This compound also came in with a λ max in data set [3] (in chloroform) of 521 nm. For the same compound, the ε in data set [3] (in chloroform, at λ max) is listed as 9470.

As for `CCCCCCCCOc1c(F)c2c(c(F)c1Nc1ccc([N+](=O)[O-])cc1)C(=O)c1c(O)ccc(O)c1C2=O` [(41)], the Color tone result in the data set “Color tone of the dye” was “Magenta”. In addition, in data set [1], the “Solubility in methyl ethyl ketone” value was “.circleincircle. (a solubility of not less than 3% by weight)”. Moreover, in data set [1] (in toluene), the Solubility in toluene result is on record as “.circleincircle. (a solubility of not less than 3% by weight)”. Also, the Stability in storage result in data set [2] was “Good”. Besides, in data set [3] (in chloroform), the λ max was determined as 524 nm. Moreover, in data set [3] (in chloroform, at λ max), the ε is 13200.

As for `CCCCCCCCOc1c(F)c2c(c(F)c1Nc1ccc(C(=O)OCCCC)cc1)C(=O)c1c(O)ccc(O)c1C2=O` [(36)], the Color tone entry in “Color tone of the dye” was “Magenta”. Also, in data set [1], the “Solubility in methyl ethyl ketone” value is given as “.circleincircle. (a solubility of not less than 3% by weight)”. Also, the Solubility in toluene result in data set [1] (in toluene) is reported as “.circleincircle. (a solubility of not less than 3% by weight)”. In addition, the Stability in storage entry in data set [2] is reported as “Good”. This compound registered a λ max in data set [3] (in chloroform) of 534 nm. The compound also came in with a ε in data set [3] (in chloroform, at λ max) of 12700.

`CCCCCCCCOc1c(F)c2c(c(F)c1Nc1ccc(C#N)cc1)C(=O)c1c(O)ccc(O)c1C2=O` [(45)]: the Color tone entry in “Color tone of the dye” is reported as “Magenta”. Further, the “Solubility in methyl ethyl ketone” value in data set [1] is listed as “.circleincircle. (a solubility of not less than 3% by weight)”. Also, the Solubility in toluene result in data set [1] (in toluene) is on record as “.circleincircle. (a solubility of not less than 3% by weight)”. Also, in data set [2], the Stability in storage result is “Good”. The compound further displayed a λ max in data set [3] (in chloroform) of 524 nm. This compound displayed a ε in data set [3] (in chloroform, at λ max) of 15400.

On to `CC(C)c1cccc(C(C)C)c1Nc1c(F)c2c(c(F)c1Nc1c(C(C)C)cccc1C(C)C)C(=O)c1c(O)ccc(O)c1C2=O` [(139)], for which the Color tone result in “Color tone of the dye” is on record as “Cyan”. The “Solubility in methyl ethyl ketone” value in data set [1] is given as “.largecircle. (a solubility in the approximate range of 1 to 3% by weight)”. The Solubility in toluene result in data set [1] (in toluene) is recorded as “.circleincircle. (a solubility of not less than 3% by weight)”. In addition, in data set [2], the Stability in storage entry is recorded as “Good”. For the same compound, the λ max in data set [3] (in chloroform) was 660 nm. For the same compound, in data set [3] (in chloroform, at λ max), the ε is 26000.

Take `CCc1cccc(CC)c1Nc1c(F)c2c(c(F)c1Nc1c(CC)cccc1CC)C(=O)c1c(O)ccc(O)c1C2=O` [(137)]: the Color tone entry in “Color tone of the dye” is recorded as “Cyan”. The “Solubility in methyl ethyl ketone” value in data set [1] is given as “.largecircle. (a solubility in the approximate range of 1 to 3% by weight)”. Also, the Solubility in toluene result in data set [1] (in toluene) is “.circleincircle. (a solubility of not less than 3% by weight)”. Also, the Stability in storage result in data set [2] is on record as “Good”. Moreover, the λ max in data set [3] (in chloroform) was found to be 657 nm. The ε in data set [3] (in chloroform, at λ max) is recorded as 3000.

Consider `CCCCCCCCOc1c(F)c2c(c(F)c1Nc1c(CC)cccc1CC)C(=O)c1c(O)ccc(O)c1C2=O` [(51)], for which, in the data set “Color tone of the dye”, the Color tone result is “Purple”. Besides, the “Solubility in methyl ethyl ketone” value in data set [1] is “.circleincircle. (a solubility of not less than 3% by weight)”. For the same compound, in data set [1] (in toluene), the Solubility in toluene entry was “.circleincircle. (a solubility of not less than 3% by weight)”. Also, the Stability in storage entry in data set [2] is “Good”. The λ max in data set [3] (in chloroform) is 563 nm. The ε in data set [3] (in chloroform, at λ max) stood at 11400.

Consider `O=C1c2ccc(Nc3c(Cl)cccc3Cl)cc2C(=O)c2c(O)ccc(O)c21` [(102)], for which the Solubility result in data set [1] (in toluene) is “Not less than 3 % by weight”. The Stability in storage entry in data set [2] is reported as “Good”. Further, in data set [3] (in toluene), the λ max turned out to be 516 nm and the ε came to 15600.
